What was measured:
[1] = test system: untransfected HEK293 cells; assay: Counterscreen, antagonist mode, Ca2+ signal in untransfected HEK cells; assay type: cell-based; conditions: counterscreen titration; for EC50: Homo sapiens, HEK293, unit inferred, read-out: HEK ANT Final EC50
Experimental: (§1) HEK cells were transfected with cDNA (400μg/ml DNA) encoding Sm.TRPMPZQ using a Maxcyte STX electroporation system and incubated overnight at 37°C. This system is uniquely capabable of large scale transfections providing one batch of cells ready for large scale HTS [30]. Briefly, the HEK cells were resuspended at 10^8/ml in Maxcyte electroporation buffer. Plasmid DNA was added to the cells in buffer to achieve a concentration of 400 μg/ml from a stock of 5mg/ml (in TE buffer). This mixture was loaded into the appropriate cassette, inserted into the machine, and cells electroporated. Cells were then frozen to provide a single supply of transfected cells for all subsequent assays. On the day of the assays, cells were thawed in a 37°C waterbath, and resuspended in DMEM + 10% FBS and counted. The cells were pelleted by centrifugation at 170xg for 5 minutes. The media was aspirated, and the remaining pellet was resuspended in 1x HBSS with 20 mM HEPES and 1% DMSO to achieve 1.33x10^6cells/ml. This cell suspension was then dispensed at 3 μl/well to the 1536 well plates (Greiner Bio One part 789072) at a density of 4,000 cells/well. Measurements of fluorescence intensity (λex = 470 nm, λem = 535 nm) were made using a FLIPR (Molecular Devices FLIPR Tetra). A read of basal fluorescence values was made (5s) prior to addition of compounds or controls (30 nl). In both ‘agonist’ and ‘antagonist mode’, the total assay volume was 6μl (1% DMSO). […] Ligand performance was categorized using an algorithm based on the activity of the entire dataset to define a ‘hit-cutoff’ parameter for both agonist-mode and antagonist-mode screening. Any compound with greater percent activation than this cutoff was assigned as ‘active’ prior to titration and counter-screening. Titration assays were executed using the same reagents, protocols and detection systems, done as 10-point concentration-response curves, performed in triplicate. Counter-screening was performed using untransfected HEK293 cells for comparison with results testing the same compounds effect on cells expressing Sm.TRPMPZQ, with ATP used as the positive control. For each compound, activity was plotted against compound concentration and data were fitted with a sigmoidal function. In order to be considered a hit at this stage a compound must achieve a EC50<5 μM for agonists and IC50 <5 μM for antagonists. All compounds selected for titration were subjected to LC-MS analysis to confirm mass and sample purity. ChemAxon (https://www.chemaxon.com) academic licensing was provided for the use of Instant JChem (ver. 15.10.12.0) to perform compound mining of the libraries utilized in this effort.

[2] = test system: untransfected HEK293 cells; assay: Counterscreen, agonist mode, Ca2+ signal in untransfected HEK cells; assay type: cell-based; conditions: for EC50: Homo sapiens, HEK293, unit inferred, read-out: HEK AG Final EC50; for EC50 / HEK AG Averaged Max % Response: counterscreen titration
Experimental: as §1

Sm.TRPMPZQ = Sm.TRPMPZQ (Schistosoma mansoni, UniProt A0A5K4F0X5); assay: Single channel recording, inside-out patch, HEK293 stably expressing Sm.TRPMPZQ; assay type: biochemical; conditions: for mean slope single-channel conductance: agonist 10 μM, Ca2+-free, inside-out, mean ± SD
Chain of Sm.TRPMPZQ (A0A5K4F0X5 entry or part of it): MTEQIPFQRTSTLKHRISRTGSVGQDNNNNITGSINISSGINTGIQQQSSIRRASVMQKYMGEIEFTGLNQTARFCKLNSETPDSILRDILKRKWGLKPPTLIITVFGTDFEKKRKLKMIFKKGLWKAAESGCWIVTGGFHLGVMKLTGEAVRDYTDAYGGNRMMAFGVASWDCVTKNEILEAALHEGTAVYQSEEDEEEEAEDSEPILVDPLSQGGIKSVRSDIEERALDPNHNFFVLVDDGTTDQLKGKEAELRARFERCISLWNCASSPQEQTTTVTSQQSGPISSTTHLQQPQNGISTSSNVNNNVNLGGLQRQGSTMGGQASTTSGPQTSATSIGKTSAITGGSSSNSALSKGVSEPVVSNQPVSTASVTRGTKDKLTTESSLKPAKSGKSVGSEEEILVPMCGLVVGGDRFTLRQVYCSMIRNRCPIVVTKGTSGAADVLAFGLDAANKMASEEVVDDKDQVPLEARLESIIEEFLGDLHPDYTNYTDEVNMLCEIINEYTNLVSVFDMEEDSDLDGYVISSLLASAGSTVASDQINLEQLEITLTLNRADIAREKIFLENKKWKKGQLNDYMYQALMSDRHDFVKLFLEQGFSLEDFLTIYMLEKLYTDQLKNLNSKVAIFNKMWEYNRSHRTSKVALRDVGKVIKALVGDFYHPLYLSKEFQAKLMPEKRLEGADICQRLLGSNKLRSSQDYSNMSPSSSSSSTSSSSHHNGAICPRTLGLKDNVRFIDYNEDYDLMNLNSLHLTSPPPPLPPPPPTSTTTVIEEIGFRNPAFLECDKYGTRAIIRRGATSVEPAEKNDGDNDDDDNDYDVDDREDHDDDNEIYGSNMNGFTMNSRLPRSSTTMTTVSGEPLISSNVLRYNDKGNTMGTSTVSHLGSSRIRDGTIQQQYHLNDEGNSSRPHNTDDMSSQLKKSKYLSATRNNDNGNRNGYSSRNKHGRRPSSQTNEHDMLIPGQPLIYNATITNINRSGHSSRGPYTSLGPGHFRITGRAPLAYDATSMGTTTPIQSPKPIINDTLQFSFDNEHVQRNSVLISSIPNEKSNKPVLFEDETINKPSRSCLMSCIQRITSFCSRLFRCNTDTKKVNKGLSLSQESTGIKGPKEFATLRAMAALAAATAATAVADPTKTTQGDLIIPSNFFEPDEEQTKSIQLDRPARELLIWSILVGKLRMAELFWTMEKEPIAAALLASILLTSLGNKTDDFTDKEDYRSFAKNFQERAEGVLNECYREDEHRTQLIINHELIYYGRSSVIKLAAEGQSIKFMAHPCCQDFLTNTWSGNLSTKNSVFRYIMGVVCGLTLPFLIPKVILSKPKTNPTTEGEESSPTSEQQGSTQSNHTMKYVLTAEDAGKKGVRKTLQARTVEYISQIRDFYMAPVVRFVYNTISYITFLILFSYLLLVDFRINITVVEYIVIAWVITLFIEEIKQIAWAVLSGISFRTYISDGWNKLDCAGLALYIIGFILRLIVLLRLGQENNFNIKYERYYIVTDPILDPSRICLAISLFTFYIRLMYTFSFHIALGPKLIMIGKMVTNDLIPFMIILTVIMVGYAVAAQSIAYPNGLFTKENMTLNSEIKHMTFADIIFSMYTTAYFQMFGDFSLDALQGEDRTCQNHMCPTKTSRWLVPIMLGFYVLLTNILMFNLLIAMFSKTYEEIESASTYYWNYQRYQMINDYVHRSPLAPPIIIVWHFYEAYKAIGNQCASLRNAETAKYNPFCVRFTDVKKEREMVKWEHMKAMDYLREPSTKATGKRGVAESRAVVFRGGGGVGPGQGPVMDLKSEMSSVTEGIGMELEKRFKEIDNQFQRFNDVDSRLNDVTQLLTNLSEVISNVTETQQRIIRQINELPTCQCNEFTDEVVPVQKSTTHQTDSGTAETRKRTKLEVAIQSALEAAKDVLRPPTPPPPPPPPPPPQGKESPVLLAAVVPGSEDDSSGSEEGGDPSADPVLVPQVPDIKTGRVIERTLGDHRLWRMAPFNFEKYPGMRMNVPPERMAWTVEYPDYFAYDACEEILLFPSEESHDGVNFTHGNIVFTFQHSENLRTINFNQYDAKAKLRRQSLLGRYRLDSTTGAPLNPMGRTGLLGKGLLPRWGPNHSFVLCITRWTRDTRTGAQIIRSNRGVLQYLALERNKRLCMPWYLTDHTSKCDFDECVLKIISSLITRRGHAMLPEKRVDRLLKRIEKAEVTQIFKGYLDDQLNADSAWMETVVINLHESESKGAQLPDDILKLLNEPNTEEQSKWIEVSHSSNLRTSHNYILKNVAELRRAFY
Experimental: For electrophysiological analysis, a HEK293 cell line stably expressing Sm.TRPMPZQ [7] was generated using the Flp-In T-REx system (K650001, Thermofisher Scientific, Carlsbad, CA). Flp-In T-REx HEK293 cells were cultured in Dulbecco’s modified Eagle’s medium supplemented with 10% fetal bovine serum, penicillin (100 units/ml), streptomycin (100 μg/ml), L-glutamine (290 μg/ml), blasticidin (10 μg/ml), and hydromycin B (100 μg/ml). HEK293 cells were plated onto glass coverslips and Sm.TRPMPZQ expression induced by addition of tetracycline (2 μg/ml) to the media 24–48 hours before recording. Prior to recording, coverslips were secured within a recording chamber of an Olympus BX51WI upright microscope. Cells were bathed in a solution containing 145 mM KCl, 10 mM HEPES, 1 mM EGTA (pH 7.2, 310–315 mOsm/kg with sucrose). The pipette solution contained 140 mM LiCl, 10 mM HEPES, 1 mM EGTA (pH 7.4, 280–285 mOsm/kg with sucrose). Patch pipettes were made of borosilicate glass (BF150-110-10, Sutter Instrument, Novato, CA) pulled on a vertical puller (Narishige, Amityville, NY, Model PC-10) with resistances 8–10 MΩ. […] Signals were filtered with an 8-pole Bessel low pass filter at 1 kHz, and sampled at 20 kHz. Open probability (Popen) was assessed in single channel search mode using Clampfit 10 software. All recordings were done at room temperature. Data represent mean±standard error for ≥3 independent experiments.

[3] = S2 Table, listed as SR-01000003100-3
[4] = S2 Table, listed as SR-01000003100-19

SMILES	EC50 ([1]; S3 Table) [µM]	HEK ANT Averaged Max % Response ([1]; S3 Table) [%]	EC50 ([2]; S3 Table) [µM]	HEK AG Averaged Max % Response ([2]; S3 Table) [%]	effect on single channel open probability (Popen) (Sm.TRPMPZQ; 50 μM, channels activated by PZQ or AG1 (10 μM))	EC50 ([1]; S2 Table) [µM]	HEK ANT Averaged Max % Response ([1]; S2 Table) [%]	EC50 ([2]; S2 Table) [µM]	HEK AG Averaged Max % Response ([2]; S2 Table) [%]	activity on counter-screening in naïve HEK cells ([2]; concentration-response)	mean slope single-channel conductance (Sm.TRPMPZQ) [pS]	HEK ANT Averaged Max % Response [1, 3] [%]	HEK ANT Averaged Max % Response [1, 4] [%]	HEK AG Averaged Max % Response [2, 3] [%]	HEK AG Averaged Max % Response [2, 4] [%]	change in basal fluorescence ([2]; ≤30 μM, untransfected HEK293 cells)
Cc1onc(-c2ccccc2)c1C(=O)N1CCN(C2c3ccccc3-c3ccccc32)CC1 [ANT1, 1-(9H-fluoren-9-yl)-4-(5-methyl-3-phenyl-1,2-oxazole-4-carbonyl)piperazine]	> 12.4	43.1011	> 12.4	25.3604	decreased Popen	–	–	–	–	–	–	–	–	–	–	–
COc1ccc(-c2nnc3ccc(-c4cccc(C(C)C)c4)cn23)cc1OC [AG1, 3-(3,4-Dimethoxyphenyl)-6-(3-propan-2-ylphenyl)-[1,2,4]triazolo[4,3-a]pyridine]	–	–	–	–	–	10.3	64.2957	> 12.4	8.295	no activity	61 ± 4	–	–	–	–	–
O=C(C1CCCCC1)N1CC(=O)N2CCc3ccccc3C2C1 (stereo not shown) [PZQ, praziquantel, reference compound]	–	–	–	–	–	> 12.4	–	> 12.4	–	–	76 ± 8	20.9575	9.578	2.271	17.5496	failed to elicit any change in basal fluorescence
